Reference: paper PMC11079024, “Identification of a family of species-selective complex I inhibitors as potential anthelmintics” (Nature Communications, 2024)
Read-outs that look alike come from different tables or passages of the source.

Assays:
[1] = system: ben-1 mutant (ECA882) C. elegans; assay: microbe, parasite or virus in culture; settings: Caenorhabditis elegans
Procedure, shortened: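 L1 larvae (~2 worms/μL in M9) in liquid NGM with 2-fold concentrated E. coli HB101, compound at 1% DMSO, 6 days at 20 °C shaking 165 rpm. Well images scored as summed worm-associated pixels, normalized to DMSO controls; relative viability averaged over at least three biological replicates.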

L1 wild-type C. elegans = assay: microbe, parasite or virus in culture; settings: Caenorhabditis elegans
[2] = target: B. taurus (heart) complex I (Bos taurus, UniProt P03887+P17694+P42026); assay: biochemical; type: biochemical; settings: for IC50: B. taurus heart mitochondria, read-out: B. taurus Complex I IC50; for Log IC50 B. taurus complex I: log10 of IC50 in µM, B. taurus mitochondria
B. taurus (heart) complex I, sequence (P03887 whole entry): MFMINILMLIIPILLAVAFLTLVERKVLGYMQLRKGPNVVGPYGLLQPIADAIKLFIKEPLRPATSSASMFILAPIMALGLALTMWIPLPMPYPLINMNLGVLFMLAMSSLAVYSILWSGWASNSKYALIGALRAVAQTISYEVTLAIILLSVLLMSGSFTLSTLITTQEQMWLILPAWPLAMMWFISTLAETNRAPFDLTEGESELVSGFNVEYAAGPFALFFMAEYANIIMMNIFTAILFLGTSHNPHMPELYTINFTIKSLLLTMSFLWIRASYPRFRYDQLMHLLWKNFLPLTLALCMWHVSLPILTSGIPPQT
B. taurus (heart) complex I, sequence (P17694 34-463): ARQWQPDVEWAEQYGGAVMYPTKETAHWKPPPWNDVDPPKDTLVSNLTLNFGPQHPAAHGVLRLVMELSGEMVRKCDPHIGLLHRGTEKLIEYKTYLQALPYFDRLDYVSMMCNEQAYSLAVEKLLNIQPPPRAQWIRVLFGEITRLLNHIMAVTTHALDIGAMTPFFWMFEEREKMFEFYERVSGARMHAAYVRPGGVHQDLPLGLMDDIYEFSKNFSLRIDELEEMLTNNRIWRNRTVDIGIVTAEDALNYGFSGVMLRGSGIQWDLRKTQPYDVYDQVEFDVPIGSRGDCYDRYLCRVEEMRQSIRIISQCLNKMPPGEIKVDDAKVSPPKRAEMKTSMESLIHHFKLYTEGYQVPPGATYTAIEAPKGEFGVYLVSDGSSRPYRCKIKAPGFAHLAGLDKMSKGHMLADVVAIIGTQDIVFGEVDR
B. taurus (heart) complex I, sequence (P42026 38-216): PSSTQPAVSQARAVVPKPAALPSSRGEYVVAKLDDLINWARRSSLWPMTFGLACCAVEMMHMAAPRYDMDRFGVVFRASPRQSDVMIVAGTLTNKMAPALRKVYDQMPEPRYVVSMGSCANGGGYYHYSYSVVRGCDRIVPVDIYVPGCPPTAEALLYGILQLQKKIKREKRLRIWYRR
Procedure, shortened: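 Complex I activity followed as DCIP reduction (600 nm, 30 s reads, 15 min) with 80 μM NADH and 60 μM decylubiquinone in 25 mM KPi pH 7.5 containing 2 μM antimycin A and 2 mM KCN. Freeze-thawed mouse or bovine heart mitochondria at 0.2 mg/mL; initial-rate percent of solvent control, single-point 100 μM or dose-response.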

[3] = read-out: C. elegans (ben-1) Development & Viability Assay LC50
[4] = read-out: C. elegans ben-1(e1880) development/viability
[5] = read-out: C. elegans ben-1 log10 LC50 (converted)
[6] = read-out: C. elegans KCN Survival Assay LC50, estimated from fitted dose-response curves, mean of at least two biological replicates
[7] = estimated from fitted dose-response curves

CC(C)Oc1cccc(OCCn2cnc3ccccc32)c1 [Compound 7926496]
LC50 [1, 3]: 388 µM
viability at 1 µM [1, 4]: 86.1%
viability at 2 µM [1, 4]: 87.5%
viability at 3.9 µM [1, 4]: 87.4%
viability at 15.6 µM [1, 4]: 90.6%
viability at 31.3 µM [1, 4]: 95.8%
viability at 62.5 µM [1, 4]: 91.5%
viability at 125 µM [1, 4]: 81%
viability at 250 µM [1, 4]: 86.3%
viability at 500 µM [1, 4]: 13.9%
viability at 1000 µM [1, 4]: 3.6%
LC50 [1, 5]: 388 µM
LC50 (L1 wild-type C. elegans; [6]): 23 µM
IC50 [2]: 2.19 µM
activity at 0.0001 µM ([2]; Dose 0.0001 µM, read-out: B. taurus mitochondrial complex I activity): 89.9%
activity at 0.0005 µM ([2]; Dose 0.0005 µM, read-out: B. taurus mitochondrial complex I activity): 91.2%
activity at 0.001 µM ([2]; Dose 0.001 µM, read-out: B. taurus mitochondrial complex I activity): 91.7%
activity at 0.0025 µM ([2]; Dose 0.0025 µM, read-out: B. taurus mitochondrial complex I activity): 85.5%
activity at 0.005 µM ([2]; Dose 0.005 µM, read-out: B. taurus mitochondrial complex I activity): 94.5%
activity at 0.013 µM ([2]; Dose 0.013 µM, read-out: B. taurus mitochondrial complex I activity): 90.6%
activity at 0.025 µM ([2]; Dose 0.025 µM, read-out: B. taurus mitochondrial complex I activity): 91.4%
activity at 0.063 µM ([2]; Dose 0.063 µM, read-out: B. taurus mitochondrial complex I activity): 86%
activity at 0.125 µM ([2]; Dose 0.125 µM, read-out: B. taurus mitochondrial complex I activity): 80.2%
activity at 0.313 µM ([2]; Dose 0.313 µM, read-out: B. taurus mitochondrial complex I activity): 76.3%
activity at 0.625 µM ([2]; Dose 0.625 µM, read-out: B. taurus mitochondrial complex I activity): 69.4%
activity at 1.5 µM ([2]; Dose 1.5 µM, read-out: B. taurus mitochondrial complex I activity): 53.2%
activity at 3 µM ([2]; Dose 3 µM, read-out: B. taurus mitochondrial complex I activity): 36%
activity at 15 µM ([2]; Dose 15 µM, read-out: B. taurus mitochondrial complex I activity): 9.56%
activity at 37.5 µM ([2]; Dose 37.5 µM, read-out: B. taurus mitochondrial complex I activity): 1.81%
activity at 75 µM ([2]; Dose 75 µM, read-out: B. taurus mitochondrial complex I activity): 1.89%
Log IC50 B. taurus complex I [2]: 0.34 µM

Cc1nc2ccccc2n1Cc1ccc(Cl)cc1 [STK697993]
LC50 [1, 3]: 40.1 µM
LC50 [1, 5]: 40.1 µM
LC50 (L1 wild-type C. elegans; read-out: C. elegans KCN Survival Assay LC50): 8.18 µM
Complex I IC50 ~Fold Change ([2]; B. taurus complex I IC50 relative to C. elegans complex I IC50): 2.72
IC50 [2, 7]: 0.3 µM
B. taurus: C. elegans IC50 Fold Change (Complex I IC50 ~Fold Change) ([2]; complex I IC50 ratio bovine heart / C. elegans): 2.72
IC50 Fold change ([2]; fold-change in IC50 between B. taurus and C. elegans complex I): 2.72
Log IC50 B. taurus complex I [2]: -0.52 µM

CCn1c(C(C)c2ccc(CC(C)C)cc2)nc2ccccc21 (centres unmarked) [STK951902]
LC50 [1, 3]: 644 µM
LC50 [1, 5]: 644 µM
LC50 (L1 wild-type C. elegans; [6]): 8.7 µM
IC50 [2, 7]: 12.5 µM
Log IC50 B. taurus complex I [2]: 1.10 µM

CC(C)Cc1ccc(C(C)c2nc3ccccc3n2C(C)C)cc1 (centres unmarked) [STK951903]
LC50 [1, 3]: 731 µM
LC50 [1, 5]: 731 µM
LC50 (L1 wild-type C. elegans; [6]): 25.1 µM
IC50 [2]: 14.7 µM
Log IC50 B. taurus complex I [2]: 1.17 µM

C=CCn1c(C(C)c2ccc(CC(C)C)cc2)nc2ccccc21 (centres unmarked) [STL020755]
LC50 [1, 3]: 285 µM
LC50 [1, 5]: 284 µM
LC50 (L1 wild-type C. elegans; [6]): 9.97 µM
IC50 [2, 7]: 16.8 µM
Log IC50 B. taurus complex I [2]: 1.23 µM

c1ccc(CCCCCCCCCCc2nc3ccccc3[nH]2)cc1 [STL442376]
LC50 [1, 3]: 640 µM
LC50 [1, 5]: 640 µM
LC50 (L1 wild-type C. elegans; [6]): 5.61 µM
IC50 [2, 7]: 3.32 µM
Log IC50 B. taurus complex I [2]: 0.52 µM
